Laboratory results from US11760762B2, “Thienopyranones and furanopyranones as kinase, bromodomain, and checkpoint inhibitors” (SignalRx Pharmaceuticals, Inc., priority 2017, dated 2023).
Structures can show the parent of a compound that is named as a salt. Where two headings read alike, the source gives them in different places.

Experiments:
Hep3B = experiment: Hepatocellular carcinoma cell viability, AlamarBlue; type: cell-based; conditions: Homo sapiens, 24 hours, read-out: Hepatocarcinoma Cell Line IC50 Values Hep3B
Experimental: (§1) Cells were seeded into 96-well plate at 1×10^4 cell per well in complete medium+10% FCS and incubated for 24 hours prior to the addition of compounds at concentrations ranging from 50 μM to 50 nM. Cell viability was quantitated 24 hours after the addition of compounds using AlamarBlue® viable cell detection reagent. IC50 curves were determined using Graphpad Prism software.

HepG2 = experiment: as above; type: cell-based; conditions: Homo sapiens, 24 hours, read-out: Hepatocarcinoma Cell Line IC50 Values HepG2
Experimental: as §1

Huh7 = experiment: as above; type: cell-based; conditions: Homo sapiens, Huh-7; 24 hours; read-out: Hepatocarcinoma Cell Line IC50 Values Huh7
Experimental: as §1

Huh7 2H cell line = experiment: Huh7 2H cell viability; type: cell-based; conditions: for IC50: Homo sapiens, Huh-7, 2 h
Experimental: as §1
The procedures of example 6 were followed except using the Huh7 2H cell line.

CDK4 = target: T1, CDK4 (Homo sapiens, UniProt P11802); experiment: Cyclin dependent kinase inhibition (Reaction Biology Corp.); type: biochemical; conditions: 10-point curve, grouped by potency
T1 construct: Reaction Biology Corp., Malvern, PA (contract assay service)
Experimental: (§2) PI3K-alpha, PI3K-beta, PI3K-gamma, and PI3K-delta inhibition activity was determined by Thermo Fisher Scientific-Biosciences Life Sciences Solutions, Madison, WI The bromodomain protein inhibition (binding domain 1 and 2 of BRD4) was determined by Reaction Biology Corp., Malvern, PA The cyclin dependent kinase inhibition on proteins such as CDK2, CDK4, CDK6, and CDK9 was determined by Reaction Biology Corp., Malvern, PA.
(§3) The compounds of the invention were characterized by their ability to inhibit the target proteins using third party vendors offering such services. PI3K-alpha, PI3K-gamma, and PI3K-delta inhibition activity was determined by Thermo Fisher Scientific-Biosciences Life Sciences Solutions, Madison, WI. […] NI=no inhibition detected up to 50 μM or IC50 not reached at 50 μM. ND=not done.

CDK6 = target: T2, CDK6 (Homo sapiens, UniProt Q00534); experiment: as above; type: biochemical; conditions: 10-point curve, grouped by potency
T2 construct: Reaction Biology Corp., Malvern, PA (contract assay service)
Experimental: as §2, §3

BRD4 binding domain 1 = target: T3, BRD4 binding domain 1 (Homo sapiens, UniProt O60885); experiment: Bromodomain protein inhibition (Reaction Biology Corp.)
T3 construct: Reaction Biology Corp., Malvern, PA (contract assay service)
Experimental: as §2
(§4) The compounds of the invention were characterized by their ability to inhibit the target proteins using third party vendors offering such services. PI3K-alpha, PI3K-gamma, and PI3K-delta inhibition activity was determined by Thermo Fisher Scientific-Biosciences Life Sciences Solutions, Madison, WI. […] ND=not done.

BRD4 binding domain 2 = target: T4, BRD4 binding domain 2 (Homo sapiens, UniProt O60885); experiment: as above
T4 construct: Reaction Biology Corp., Malvern, PA (contract assay service)
Experimental: as §2, §4

PI3K-alpha = target: T5, PI3K-alpha (Homo sapiens, UniProt P42336); experiment: PI3K inhibition (Thermo Fisher Scientific); type: biochemical; conditions: 10-point curve, grouped by potency; read-out: IC50 P13K α
T5 construct: Thermo Fisher Scientific-Biosciences Life Sciences Solutions, Madison, WI (contract assay service)

PI3K-delta = target: T6, PI3K-delta (Homo sapiens, UniProt O00329); experiment: PI3K inhibition (Thermo Fisher Scientific); type: biochemical; conditions: 10-point curve, grouped by potency; read-out: IC50 P13K δ
T6 construct: Thermo Fisher Scientific-Biosciences Life Sciences Solutions, Madison, WI (contract assay service)
Experimental: as §2, §3

PI3K-gamma = target: T7, PI3K-gamma (Homo sapiens, UniProt P48736); experiment: PI3K inhibition (Thermo Fisher Scientific); type: biochemical; conditions: 10-point curve, grouped by potency; read-out: IC50 P13K γ
T7 construct: Thermo Fisher Scientific-Biosciences Life Sciences Solutions, Madison, WI (contract assay service)
Experimental: as §2, §3

PI3 kinases = conditions: C. J. Vlahos et al., J. Biol. Chem. 1994; cited from earlier work
CDK4/Cyclin D1 = CDK4/Cyclin D1 (Homo sapiens, UniProt P11802); conditions: Divakar et al., Leukemia 2016; cited from earlier work
CDK6/Cyclin D1 = CDK6/Cyclin D1 (Homo sapiens, UniProt Q00534); conditions: Divakar et al., Leukemia 2016; cited from earlier work
Granta = experiment: Mantle cell lymphoma cell viability, AlamarBlue; type: cell-based; conditions: 48 hours; read-out: Mantle Cell Line IC50 Values Granta
Experimental: (§5) Mantle cell lymphoma cell lines Granta, Mino and Jeko-1 were seeded at a density of 2500 cells/0.1 mL per well in a 96-well plate. Compounds 1 or Palbociclib were added post-plating at 50 μM-50 nM concentrations for 48 hours followed by addition of AlamarBlue® and incubation of plates at 37° C. in 5% CO2 for 6 hours. Fluorescence signals were read as emission at 590 nm after excitation at 560 nm. IC50 for each cell line was determined using Graphpad Prism software module.

Jeko-1 = experiment: Mantle cell lymphoma cell viability, AlamarBlue; type: cell-based; conditions: Homo sapiens, JeKo-1; 48 hours; read-out: Mantle Cell Line IC50 Values Jeko-1
Experimental: as §5

Mino = experiment: Mantle cell lymphoma cell viability, AlamarBlue; type: cell-based; conditions: Homo sapiens, MINO; 48 hours; read-out: Mantle Cell Line IC50 Values Mino
Experimental: as §5

[1] = 10-point curve, grouped by potency, read-out: IC50 BRD4-2
[2] = 10-point curve, grouped by potency, read-out: IC50 BRD4-1

T2 sequence (Q00534 whole entry): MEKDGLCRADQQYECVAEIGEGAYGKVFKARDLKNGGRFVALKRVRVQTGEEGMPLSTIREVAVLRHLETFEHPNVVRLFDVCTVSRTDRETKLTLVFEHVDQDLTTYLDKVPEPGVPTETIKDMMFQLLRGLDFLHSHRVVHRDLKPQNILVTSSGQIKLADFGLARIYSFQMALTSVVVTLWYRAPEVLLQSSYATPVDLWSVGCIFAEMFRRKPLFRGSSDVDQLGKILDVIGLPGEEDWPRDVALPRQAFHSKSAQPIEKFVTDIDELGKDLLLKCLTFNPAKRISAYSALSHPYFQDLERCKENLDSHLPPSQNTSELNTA
T2 sequence (P24385 whole entry partner): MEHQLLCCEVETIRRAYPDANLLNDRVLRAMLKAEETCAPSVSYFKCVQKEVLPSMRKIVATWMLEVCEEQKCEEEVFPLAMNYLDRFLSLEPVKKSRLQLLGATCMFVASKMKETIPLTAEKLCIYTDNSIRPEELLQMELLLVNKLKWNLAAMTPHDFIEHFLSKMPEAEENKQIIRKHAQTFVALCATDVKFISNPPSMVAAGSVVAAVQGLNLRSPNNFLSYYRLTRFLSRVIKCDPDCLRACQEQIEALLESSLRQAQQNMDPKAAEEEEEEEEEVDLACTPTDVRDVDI
T1 sequence (P11802 whole entry): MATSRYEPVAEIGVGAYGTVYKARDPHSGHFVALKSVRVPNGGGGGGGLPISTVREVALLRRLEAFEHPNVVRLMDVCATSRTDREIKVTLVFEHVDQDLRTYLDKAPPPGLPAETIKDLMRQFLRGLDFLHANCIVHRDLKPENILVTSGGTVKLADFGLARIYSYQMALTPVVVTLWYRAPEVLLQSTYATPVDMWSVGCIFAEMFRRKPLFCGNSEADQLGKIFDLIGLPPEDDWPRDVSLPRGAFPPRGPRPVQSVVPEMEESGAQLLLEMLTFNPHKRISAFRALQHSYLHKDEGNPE
T1 sequence (P24385 whole entry partner): as the sequence (P24385 whole entry partner) above
T6 sequence (O00329 whole entry): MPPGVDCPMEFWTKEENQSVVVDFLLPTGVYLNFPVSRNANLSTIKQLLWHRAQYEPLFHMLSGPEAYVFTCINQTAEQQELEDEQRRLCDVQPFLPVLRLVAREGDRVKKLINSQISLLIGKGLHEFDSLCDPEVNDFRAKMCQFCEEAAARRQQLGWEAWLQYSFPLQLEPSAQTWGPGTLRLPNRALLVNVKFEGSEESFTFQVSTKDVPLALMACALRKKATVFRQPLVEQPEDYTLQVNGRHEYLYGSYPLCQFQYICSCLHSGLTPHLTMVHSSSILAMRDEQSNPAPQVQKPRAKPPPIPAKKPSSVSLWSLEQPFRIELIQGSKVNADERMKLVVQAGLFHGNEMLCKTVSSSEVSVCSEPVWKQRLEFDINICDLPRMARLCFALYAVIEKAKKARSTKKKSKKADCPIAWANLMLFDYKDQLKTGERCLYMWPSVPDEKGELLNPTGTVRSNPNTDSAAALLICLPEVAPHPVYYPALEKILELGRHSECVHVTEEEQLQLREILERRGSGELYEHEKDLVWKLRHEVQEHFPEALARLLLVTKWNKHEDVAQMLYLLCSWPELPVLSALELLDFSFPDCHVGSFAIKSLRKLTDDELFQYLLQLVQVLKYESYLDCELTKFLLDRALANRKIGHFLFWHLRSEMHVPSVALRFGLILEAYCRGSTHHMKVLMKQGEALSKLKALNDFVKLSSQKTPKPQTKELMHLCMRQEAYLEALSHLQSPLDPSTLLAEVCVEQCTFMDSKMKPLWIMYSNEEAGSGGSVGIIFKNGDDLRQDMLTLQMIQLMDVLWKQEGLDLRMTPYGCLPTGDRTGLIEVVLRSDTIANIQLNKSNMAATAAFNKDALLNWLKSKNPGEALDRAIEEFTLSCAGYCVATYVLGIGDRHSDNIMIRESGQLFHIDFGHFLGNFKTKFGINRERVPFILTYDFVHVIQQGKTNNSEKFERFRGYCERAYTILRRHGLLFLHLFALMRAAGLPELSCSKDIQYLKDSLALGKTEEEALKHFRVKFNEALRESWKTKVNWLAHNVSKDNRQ
T6 sequence (P27986 whole entry partner): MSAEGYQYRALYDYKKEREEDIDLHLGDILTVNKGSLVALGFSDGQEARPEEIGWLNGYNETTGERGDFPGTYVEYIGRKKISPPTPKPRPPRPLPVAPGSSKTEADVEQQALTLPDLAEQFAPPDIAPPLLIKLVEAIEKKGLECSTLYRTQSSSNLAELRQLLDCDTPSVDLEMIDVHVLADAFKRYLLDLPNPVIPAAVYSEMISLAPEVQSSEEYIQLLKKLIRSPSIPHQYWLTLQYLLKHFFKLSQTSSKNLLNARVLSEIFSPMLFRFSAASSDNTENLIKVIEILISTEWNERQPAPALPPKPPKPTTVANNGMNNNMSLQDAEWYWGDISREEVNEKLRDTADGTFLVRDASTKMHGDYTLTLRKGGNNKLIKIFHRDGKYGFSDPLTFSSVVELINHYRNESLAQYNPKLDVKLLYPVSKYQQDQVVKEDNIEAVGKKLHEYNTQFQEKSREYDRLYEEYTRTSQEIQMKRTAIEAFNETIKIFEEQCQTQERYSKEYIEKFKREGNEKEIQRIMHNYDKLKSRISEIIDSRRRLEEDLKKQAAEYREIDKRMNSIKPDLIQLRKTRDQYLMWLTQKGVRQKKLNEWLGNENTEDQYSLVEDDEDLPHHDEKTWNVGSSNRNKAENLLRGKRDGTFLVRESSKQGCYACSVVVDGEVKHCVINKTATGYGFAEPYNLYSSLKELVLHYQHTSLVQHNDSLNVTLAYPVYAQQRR
T7 sequence (P48736 whole entry): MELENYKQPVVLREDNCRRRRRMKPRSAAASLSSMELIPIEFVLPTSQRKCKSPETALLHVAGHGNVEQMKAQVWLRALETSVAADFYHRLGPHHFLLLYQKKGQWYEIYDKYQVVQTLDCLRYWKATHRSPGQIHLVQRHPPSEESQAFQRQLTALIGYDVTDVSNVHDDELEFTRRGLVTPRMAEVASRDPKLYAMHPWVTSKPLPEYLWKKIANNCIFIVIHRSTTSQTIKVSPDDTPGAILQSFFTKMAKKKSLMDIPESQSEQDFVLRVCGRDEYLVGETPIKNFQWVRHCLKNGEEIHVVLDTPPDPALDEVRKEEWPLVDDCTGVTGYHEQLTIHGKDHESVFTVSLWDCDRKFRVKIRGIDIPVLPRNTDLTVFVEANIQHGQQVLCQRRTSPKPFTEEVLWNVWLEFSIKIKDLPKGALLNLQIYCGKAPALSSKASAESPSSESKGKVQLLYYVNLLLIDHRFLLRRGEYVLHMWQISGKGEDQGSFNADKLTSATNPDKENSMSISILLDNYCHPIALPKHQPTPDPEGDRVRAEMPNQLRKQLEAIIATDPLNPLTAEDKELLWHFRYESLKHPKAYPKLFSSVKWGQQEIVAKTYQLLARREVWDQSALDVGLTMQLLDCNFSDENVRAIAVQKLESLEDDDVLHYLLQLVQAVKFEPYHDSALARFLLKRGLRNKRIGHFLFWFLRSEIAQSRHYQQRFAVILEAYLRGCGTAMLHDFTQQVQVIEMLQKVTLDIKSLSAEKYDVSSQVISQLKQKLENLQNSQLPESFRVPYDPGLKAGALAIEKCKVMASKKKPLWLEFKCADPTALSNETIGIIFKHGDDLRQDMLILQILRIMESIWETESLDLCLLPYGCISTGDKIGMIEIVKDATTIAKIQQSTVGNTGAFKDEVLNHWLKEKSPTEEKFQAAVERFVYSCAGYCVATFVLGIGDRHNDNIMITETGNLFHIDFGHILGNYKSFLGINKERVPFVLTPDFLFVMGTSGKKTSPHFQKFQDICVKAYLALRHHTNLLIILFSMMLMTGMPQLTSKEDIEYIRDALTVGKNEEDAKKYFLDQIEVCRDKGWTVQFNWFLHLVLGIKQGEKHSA
T5 sequence (P42336 whole entry): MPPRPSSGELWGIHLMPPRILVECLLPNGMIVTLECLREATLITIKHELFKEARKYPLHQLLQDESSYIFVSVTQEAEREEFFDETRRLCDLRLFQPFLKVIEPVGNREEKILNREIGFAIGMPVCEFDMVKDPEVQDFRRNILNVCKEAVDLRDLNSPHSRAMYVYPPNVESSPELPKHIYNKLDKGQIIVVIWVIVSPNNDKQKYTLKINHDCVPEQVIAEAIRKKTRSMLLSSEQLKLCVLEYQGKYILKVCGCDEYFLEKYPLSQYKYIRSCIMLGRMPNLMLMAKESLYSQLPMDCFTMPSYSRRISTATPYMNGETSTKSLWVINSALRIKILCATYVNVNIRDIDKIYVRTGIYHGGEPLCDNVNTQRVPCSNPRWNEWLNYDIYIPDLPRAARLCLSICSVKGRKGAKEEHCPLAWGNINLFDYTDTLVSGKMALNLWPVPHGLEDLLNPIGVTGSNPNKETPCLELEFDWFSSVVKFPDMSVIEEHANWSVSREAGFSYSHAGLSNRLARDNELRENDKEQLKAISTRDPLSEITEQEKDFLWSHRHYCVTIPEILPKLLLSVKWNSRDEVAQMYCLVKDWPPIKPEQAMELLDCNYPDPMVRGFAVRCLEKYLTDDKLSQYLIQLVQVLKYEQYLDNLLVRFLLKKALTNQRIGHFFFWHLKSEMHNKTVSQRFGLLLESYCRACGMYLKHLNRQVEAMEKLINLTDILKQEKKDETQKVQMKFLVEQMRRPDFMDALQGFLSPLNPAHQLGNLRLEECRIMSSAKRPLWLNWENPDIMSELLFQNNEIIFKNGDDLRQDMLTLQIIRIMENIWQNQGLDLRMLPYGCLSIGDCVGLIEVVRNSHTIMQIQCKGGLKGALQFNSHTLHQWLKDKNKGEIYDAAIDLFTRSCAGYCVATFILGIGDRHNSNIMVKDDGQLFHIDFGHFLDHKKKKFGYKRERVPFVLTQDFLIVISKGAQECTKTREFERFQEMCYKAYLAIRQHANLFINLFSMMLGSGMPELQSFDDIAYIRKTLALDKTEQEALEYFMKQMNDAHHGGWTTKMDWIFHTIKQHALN
T5 sequence (P27986 whole entry partner): as the sequence (P27986 whole entry partner) above
Sequence of CDK6/Cyclin D1 (Q00534 whole entry, species assumed): as the sequence (Q00534 whole entry) above
Sequence of CDK6/Cyclin D1 (P24385 whole entry partner, species assumed): as the sequence (P24385 whole entry partner) above

| IC50 (CDK4) [µM] | IC50 (CDK6) [µM] | IC50 (BRD4 binding domain 2; [1]) [µM] | IC50 (PI3K-alpha) [µM] | IC50 (PI3K-delta) [µM] | IC50 (PI3K-gamma) [µM] | IC50 (BRD4 binding domain 1; [2]) [µM] | SMILES | further results |
| --- | --- | --- | --- | --- | --- | --- | --- | --- |
| – | – | – | – | – | – | – | O=c1cc(N2CCOCC2)oc2c(-c3ccc4c(c3)OCCO4)csc12 [Compound 0, reference compound] | IC50 (Hep3B): 6.6 µM; IC50 (HepG2): 5 µM; IC50 (Huh7): 14.3 µM; IC50 (Huh7 2H cell line): 2.97 to 5.9 µM |
| < 0.1 | < 0.1 | 0.1 to 1 | 0.1 to 1 | < 0.1 | 0.1 to 1 | – | CN(C)C(=O)c1cc2cnc(Nc3ccc(-c4csc5c(=O)cc(N6CCOCC6)oc45)cn3)nc2n1C1CCCC1 [Compound 3, {1-Cyclopentyl-6-[5-(5-morpholino-7-oxo-4-oxa-1-thia-3-indenyl)-2-pyridylamino]-1,5,7-triaza-1H-inden-2-yl}(dimethylamino)formaldehyde] | IC50 BRD4-1 (BRD4 binding domain 1; 10-point curve, grouped by potency): * to ** |
| > 50 | > 50 | 1 to 5 | 0.1 to 1 | 0.1 to 1 | 1 to 5 | 0.1 to 1 | COC(=O)c1cc(-c2csc3c(=O)cc(N4CCOCC4)oc23)ccc1Nc1ncc2cc(C(=O)N(C)C)n(C3CCCC3)c2n1 [Compound 4, Methyl 2-[1-cyclopentyl-2-(dimethylamino)carbonyl-1,5,7-triaza-1H-inden-6-ylamino]-5-(5-morpholino-7-oxo-4-oxa-1-thia-3-indenyl)benzoate] | – |
| < 0.1 | < 0.1 | > 50 | 5 to 50 | 1 to 5 | > 50 | > 50 | Cc1nc2c(F)cc(-c3nc(Nc4ccc(-c5csc6c(=O)cc(N7CCOCC7)oc56)cc4)ncc3F)cc2n1C(C)C [Compound 5, 3-{p-[5-Fluoro-4-(7-fluoro-3-isopropyl-2-methyl-1,3-diaza-3H-inden-5-yl)-2-pyrimidinylamino]phenyl}-5-morpholino-4-oxa-1-thia-7-indenone] | – |
| < 0.1 | < 0.1 | 0.1 to 1 | < 0.1 | < 0.1 | 1 to 5 | 0.1 to 1 | CC(=O)c1c(C)c2cnc(Nc3ccc(-c4csc5c(=O)cc(N6CCOCC6)oc45)cc3)nc2n(C2CCCC2)c1=O [Compound 6, 1-{8-cyclopentyl-5-methyl-2-[p-(5-morpholino-7-oxo-4-oxa-1-thia-3-indenyl)phenylamino]-7-oxo-1,3,8-triaza-8H-naphth-6-yl}-1-ethanone] | – |
| < 0.1 | < 0.1 | 0.1 to 1 | 0.1 to 1 | < 0.1 | 1 to 5 | 0.1 to 1 | COC(=O)c1cc(Nc2ncc3cc(C(=O)N(C)C)n(C4CCCC4)c3n2)ccc1-c1csc2c(=O)cc(N3CCOCC3)oc12 [Compound 7, Methyl 5-[1-cyclopentyl-2-(dimethylamino)carbonyl-1,5,7-triaza-1H-inden-6-ylamino]-2-(5-morpholino-7-oxo-4-oxa-1-thia-3-indenyl)benzoate] | – |
| 5 to 50 | 5 to 50 | 0.1 to 1 | < 0.1 | 0.1 to 1 | 0.1 to 1 | < 0.1 | CN(C)C(=O)c1cc2cnc(Nc3ccc(-c4csc5c(=O)cc(N6CCOCC6)oc45)c(C(=O)O)c3)nc2n1C1CCCC1 [Compound 10, 5-[1-Cyclopentyl-2-(dimethylamino)carbonyl-1,5,7-triaza-1H-inden-6-ylamino]-2-(5-morpholino-7-oxo-4-oxa-1-thia-3-indenyl)benzoic acid] | – |
| < 0.1 | < 0.1 | 1 to 5 | 0.1 to 1 | 0.1 to 1 | 5 to 50 | 1 to 5 | CN(C)C(=O)c1cc2cnc(Nc3ccc(-c4csc5c(=S)cc(N6CCOCC6)oc45)cc3)nc2n1C1CCCC1 [Compound 11, {1-Cyclopentyl-6-[p-(5-morpholino-7-thioxo-4-oxa-1-thia-3-indenyl)phenylamino]-1,5,7-triaza-1H-inden-2-yl}(dimethylamino)formaldehyde] | – |
| 0.1 to 1 | 0.1 to 1 | 5 to 50 | 0.1 to 1 | 0.1 to 1 | 5 to 50 | 5 to 50 | CN(C)C(=S)c1cc2cnc(Nc3ccc(-c4csc5c(=S)cc(N6CCOCC6)oc45)cc3)nc2n1C1CCCC1 [Compound 12, 7-Cyclopentyl-N,N-dimethyl-2-((4-(5-morpholino-7-thioxo-7H-thieno[3,2-b]pyran-3-yl)phenyl)amino)-7H-pyrrolo[2,3-d]pyrimidine-6-carbothioamide] | – |
| < 0.1 | < 0.1 | 1 to 5 | 5 to 50 | 0.1 to 1 | 1 to 5 | 0.1 to 1 | CN(C)C(=O)c1cc2cnc(Nc3ccc(-c4csc5c(=O)cc(N6CCN(C(=O)OC(C)(C)C)CC6)oc45)cc3)nc2n1C1CCCC1 [Compound 18] | – |
| – | – | – | – | – | – | – | O=c1cc(N2CCOCC2)oc2c(-c3ccccc3)cccc12 [LY294002, 2-(4-morpholinyl)-8-phenyl-4H-1-benzopyran-4-one] | IC50 (PI3 kinases): 1.4 µM |
| – | – | – | – | – | – | – | CN1CCN(c2ccc(Nc3ncc4cc(C#N)c(=O)n(C5CCCC5)c4n3)cc2)CC1 [ON123300, reference compound] | IC50 (BRD4 binding domain 1; read-out: IC50 BRD4 binding domain 1): 45.6 µM; IC50 (BRD4 binding domain 2; read-out: IC50 BRD4 binding domain 2): > 50 µM; IC50 (CDK4/Cyclin D1): 0.00387 µM; IC50 (CDK6/Cyclin D1): 0.00982 µM |
| – | – | – | – | – | – | – | CC(=O)c1c(C)c2cnc(Nc3ccc(N4CCNCC4)cn3)nc2n(C2CCCC2)c1=O [Palbociclib, reference compound] | IC50 (Granta): 10.2 µM; IC50 (Jeko-1): 7.43 µM; IC50 (Mino): 47.9 µM; IC50 (Huh7 2H cell line): 9.2 µM; times less potent than Compound 1, Huh7 2H (Huh7 2H cell line; ratio of IC50 values): about 18 times |
| < 0.1 | < 0.1 | 0.1 to 1 | 5 to 50 | 5 to 50 | 5 to 50 | 0.1 to 1 | CN(C)C(=O)c1cc2cnc(Nc3ccc(-c4csc5c(=O)cc(N6CCNCC6)oc45)cc3)nc2n1C1CCCC1 [compound 2, (1-Cyclopentyl-6-{p-[7-oxo-5-(1-piperazinyl)-4-oxa-1-thia-3-indenyl]phenylamino}-1,5,7-triaza-1H-inden-2-yl)(dimethylamino)formaldehyde hydrochloride] | – |
